From US12365696B2, “Small-molecule focal adhesion kinase (FAK) inhibitors” (DANA-FARBER CANCER INSTITUTE, INC., priority 2019, dated 2025)
Values belong to the molecule of their own block, whether it stands above or below them.

Target: PTK2 (FAK) (Homo sapiens (Human), UniProt Q05397)
Assay: Z′-LYTE kinase assay (SelectScreen Biochemical Kinase Profiling), enzymatic IC50
Settings: for IC50: enzymatic, Z′-LYTE, read-out: FAK IC50
Experimental: Enzymatic IC50 data was obtained through ThermoFisher Scientific SelectScreen™ Biochemical Kinase Profiling Service, using a Z′-LYTE™ kinase-specific assay, as described below.
The test compounds were screened in 1% dimethyl sulfoxide (DMSO) (final) in the well. For 10 point titrations, 3-fold serial dilutions were conducted from the starting concentration.
All peptide/kinase mixtures were diluted to a 2× working concentration in the appropriate kinase buffer (see section kinase specific assay conditions for a complete description).
All ATP solutions were diluted to a 4× working concentration in kinase buffer (50 mM 4-(2-hydroxyethyl)-1-piperazineethanesulfonic acid (HEPES) pH 7.5, 0.01% BRIJ-35, 10 mM MgCl2, 1 mM ethylene glycol-bis(β-aminoethyl ether)-N,N,N′,N′-tetraacetic acid (EGTA)). ATP Km apparent was previously determined using a Z′-LYTE assay.
The development reagent was diluted in development buffer (see section kinase-specific assay conditions—direct and cascade for a complete description).
Using a bar-coded Corning, low volume NBS, black 384-well plate (Corning Cat. #4514), 100 nL of 100× test compound in 100% DMSO was added. […] The plate was then shaken for 30 seconds and held at room temperature for a 60 minute kinase reaction incubation period. At which point 5 μL of development reagent solution was added and the plate was shaken for 30 seconds. The plate was held again at room temperature for a 60 minute development reaction incubation period and then read on a fluorescence plate reader and analyzed.
The 2×PTK2 (FAK)/Tyr 07 mixture was prepared in 50 mM HEPES pH 7.5, 0.01% BRIJ-35, 10 mM MgCl2, 1 mM EGTA. […] After the 1 hour kinase reaction incubation period, 5 μL of a 1:16 dilution of development reagent B was added.
SelectScreen Kinase Profiling Service uses XLfit from ID Business Solutions (IDBS). The dose response curve was curve fit to model number 205 (sigmoidal dose-response model).

Sequence of PTK2 (FAK) (Q05397 whole entry): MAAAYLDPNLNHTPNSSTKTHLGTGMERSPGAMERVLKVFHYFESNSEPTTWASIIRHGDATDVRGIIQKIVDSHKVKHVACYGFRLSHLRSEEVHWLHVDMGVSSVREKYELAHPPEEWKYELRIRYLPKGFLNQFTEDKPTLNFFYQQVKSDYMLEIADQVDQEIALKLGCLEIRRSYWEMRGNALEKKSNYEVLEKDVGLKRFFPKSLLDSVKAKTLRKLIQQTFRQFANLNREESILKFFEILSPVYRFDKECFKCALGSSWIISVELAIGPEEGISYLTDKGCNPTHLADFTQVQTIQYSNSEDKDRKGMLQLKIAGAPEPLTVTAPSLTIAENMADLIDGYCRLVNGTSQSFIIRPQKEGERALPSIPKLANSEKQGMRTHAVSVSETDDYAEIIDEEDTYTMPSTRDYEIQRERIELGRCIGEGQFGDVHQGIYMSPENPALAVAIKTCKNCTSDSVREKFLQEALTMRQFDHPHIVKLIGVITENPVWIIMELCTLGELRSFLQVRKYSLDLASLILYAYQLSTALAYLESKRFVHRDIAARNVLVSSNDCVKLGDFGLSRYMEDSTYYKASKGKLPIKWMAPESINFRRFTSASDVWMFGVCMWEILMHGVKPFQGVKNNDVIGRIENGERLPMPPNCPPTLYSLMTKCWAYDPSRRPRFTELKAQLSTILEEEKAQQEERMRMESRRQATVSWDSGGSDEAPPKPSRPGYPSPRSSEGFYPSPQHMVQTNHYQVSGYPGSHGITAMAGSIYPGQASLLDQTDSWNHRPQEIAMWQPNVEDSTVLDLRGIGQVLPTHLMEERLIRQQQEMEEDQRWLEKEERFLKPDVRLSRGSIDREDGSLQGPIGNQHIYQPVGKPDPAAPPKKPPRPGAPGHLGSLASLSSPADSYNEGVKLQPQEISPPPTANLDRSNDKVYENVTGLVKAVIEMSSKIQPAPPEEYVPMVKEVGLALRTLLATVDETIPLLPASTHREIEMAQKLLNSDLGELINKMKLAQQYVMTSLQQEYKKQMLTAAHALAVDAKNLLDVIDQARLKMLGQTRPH

Structure (SMILES): Cc1nc2c(s1)N(C)c1nc(Nc3ccc(N4CCN(C)CC4)cc3)ncc1NC2=O [Compound 1, 2,4-dimethyl-6-((4-(4-methylpiperazin-1-yl)phenyl)amino)-4,9-dihydro-10H-pyrimido[5,4-b]thiazolo[5,4-e][1,4]diazepin-10-one]
- IC50: 228 nM

Structure (SMILES): COc1cc(N2CCN(CCN(C)C)CC2)ccc1Nc1ncc2c(n1)N(C)c1sc(C)nc1C(=O)N2C [Compound 200, 6-((4-(4-(2-(dimethylamino)ethyl)piperazin-1-yl)-2-methoxyphenyl)amino)-2,4,9-trimethyl-4,9-dihydro-10H-pyrimido[5,4-b]thiazolo[5,4-e][1,4]diazepin-10-one]
- IC50: 67.2 nM

Structure (SMILES): Cc1nc2c(s1)N(C)c1nc(Nc3ccc(N4CCN(C)CC4)cc3OCC(F)(F)F)ncc1N(C)C2=O [Compound 201, 2,4,9-trimethyl-6-((4-(4-methylpiperazin-1-yl)-2-(2,2,2-trifluoroethoxy)phenyl)amino)-4,9-dihydro-10H-pyrimido[5,4-b]thiazolo[5,4-e][1,4]diazepin-10-one]
- IC50: 83.5 nM

Structure (SMILES): COc1cc(N2CCC(N3CCN(C)CC3)CC2)ccc1Nc1ncc2c(n1)N(C)c1sc(C(C)C)nc1C(=O)N2C [Compound 203, 2-isopropyl-6-((2-methoxy-4-(4-(4-methylpiperazin-1-yl)piperidin-1-yl)phenyl)amino)-4,9-dimethyl-4,9-dihydro-10H-pyrimido[5,4-b]thiazolo[5,4-e][1,4]diazepin-10-one]
- IC50: 58.8 nM

Structure (SMILES): COc1cc(N2CCC(N3CCN(C)CC3)CC2)ccc1Nc1ncc2c(n1)N(CC(F)(F)F)c1sc(C)nc1C(=O)N2C [Compound 204, 6-((2-methoxy-4-(4-(4-methylpiperazin-1-yl)piperidin-1-yl)phenyl)amino)-2,9-dimethyl-4-(2,2,2-trifluoroethyl)-4,9-dihydro-10H-pyrimido[5,4-b]thiazolo[5,4-e][1,4]diazepin-10-one]
- IC50: 68.3 nM

Structure (SMILES): CN1CCN(c2ccc(Nc3ncc4c(n3)N(C)c3sc(-c5ccccc5)nc3C(=O)N4C)cc2)CC1 [Compound 184, 4,9-dimethyl-6-((4-(4-methylpiperazin-1-yl)phenyl)amino)-2-phenyl-4,9-dihydro-10H-pyrimido[5,4-b]thiazolo[5,4-e][1,4]diazepin-10-one]
- IC50: > 10000 nM
- FAK inhibitory activity (in words) (phenyl substituent at thiazole 2-position): abrogated activity

Structure (SMILES): COc1cc(N2CCN(C3CCN(C)CC3)CC2)ccc1Nc1ncc2c(n1)N(C)c1sc(C)nc1C(=O)N2C [Compound 195, 6-((2-methoxy-4-(4-(1-methylpiperidin-4-yl)piperazin-1-yl)phenyl)amino)-2,4,9-trimethyl-4,9-dihydro-10H-pyrimido[5,4-b]thiazolo[5,4-e][1,4]diazepin-10-one]
- IC50: 62.9 nM

Structure (SMILES): Cc1nc2c(s1)N(C)c1nc(Nc3ccc(N4CCN(C)CC4)cc3OCCO)ncc1N(C)C2=O [Compound 17, 6-((2-(2-hydroxyethoxy)-4-(4-methylpiperazin-1-yl)phenyl)amino)-2,4,9-trimethyl-4,9-dihydro-10H-pyrimido[5,4-b]thiazolo[5,4-e][1,4]diazepin-10-one]
- IC50: 465 nM

- IC50: 55.7 nM
Structure (SMILES): COc1cc(Nc2ncc3c(n2)N(C)c2sc(C)nc2C(=O)N3)ccc1N1CCC(N2CCN(C)CC2)CC1 [Compound 194, 6-((3-methoxy-4-(4-(4-methylpiperazin-1-yl)piperidin-1-yl)phenyl)amino)-2,4-dimethyl-4,9-dihydro-10H-pyrimido[5,4-b]thiazolo[5,4-e][1,4]diazepin-10-one]

Structure (SMILES): CCc1nc2c(s1)N(C)c1nc(Nc3ccc(N4CCC(N5CCN(C)CC5)CC4)cc3OC)ncc1NC2=O [Compound 8, 2-ethyl-6-((2-methoxy-4-(4-(4-methylpiperazin-1-yl)piperidin-1-yl)phenyl)amino)-4-methyl-4,9-dihydro-10H-pyrimido[5,4-b]thiazolo[5,4-e][1,4]diazepin-10-one]
- IC50: 32.1 nM

Structure (SMILES): COc1cc(N2CCC(N3CCN(C)CC3)CC2)ccc1Nc1ncc2c(n1)N(C)c1scnc1C(=O)N2 [Compound 6, 6-((2-methoxy-4-(4-(4-methylpiperazin-1-yl)piperidin-1-yl)phenyl)amino)-4-methyl-4,9-dihydro-10H-pyrimido[5,4-b]thiazolo[5,4-e][1,4]diazepin-10-one]
- loss in potency relative to 3 (FAK IC50): 8 fold
- IC50: 510 nM

Structure (SMILES): COc1cc(N2CCN(C)CC2=O)ccc1Nc1ncc2c(n1)N(C)c1sc(C)nc1C(=O)N2C [Compound 196, 6-((2-methoxy-4-(4-methyl-2-oxopiperazin-1-yl)phenyl)amino)-2,4,9-trimethyl-4,9-dihydro-10H-pyrimido[5,4-b]thiazolo[5,4-e][1,4]diazepin-10-one]
- IC50: 82.4 nM

Structure (SMILES): CNC(=O)c1ccc(Nc2ncc3c(n2)N(C)c2sc(C)nc2C(=O)N3)cc1 [Compound 10, 4-((2,4-dimethyl-10-oxo-9,10-dihydro-4H-pyrimido[5,4-b]thiazolo[5,4-e][1,4]diazepin-6-yl)amino)-N-methylbenzamide]
- IC50: 129 nM

Structure (SMILES): CCc1nc2c(s1)N(C)c1nc(Nc3ccc(N4CCC(N5CCN(C)CC5)CC4)cc3OC)ncc1N(C)C2=O [Compound 193, 2-ethyl-6-((2-methoxy-4-(4-(4-methylpiperazin-1-yl)piperidin-1-yl)phenyl)amino)-4,9-dimethyl-4,9-dihydro-10H-pyrimido[5,4-b]thiazolo[5,4-e][1,4]diazepin-10-one]
- IC50: 31.7 nM

Structure (SMILES): COc1cc(N2CCN(S(C)(=O)=O)CC2)ccc1Nc1ncc2c(n1)N(C)c1sc(C)nc1C(=O)N2 [Compound 11, 6-((2-methoxy-4-(4-(methylsulfonyl)piperazin-1-yl)phenyl)amino)-2,4-dimethyl-4,9-dihydro-10H-pyrimido[5,4-b]thiazolo[5,4-e][1,4]diazepin-10-one]
- IC50: 17.6 nM

Structure (SMILES): CCCOc1cc(N2CCN(C)CC2)ccc1Nc1ncc2c(n1)N(C)c1sc(C)nc1C(=O)N2C [Compound 202, 2,4,9-trimethyl-6-((4-(4-methylpiperazin-1-yl)-2-propoxyphenyl)amino)-4,9-dihydro-10H-pyrimido[5,4-b]thiazolo[5,4-e][1,4]diazepin-10-one]
- IC50: 155 nM

Structure (SMILES): COc1cc(Nc2ncc3c(n2)N(C)c2sc(C)nc2C(=O)N3)ccc1N1CCN(C)CC1 [Compound 4, 6-((3-methoxy-4-(4-methylpiperazin-1-yl)phenyl)amino)-2,4-dimethyl-4,9-dihydro-10H-pyrimido[5,4-b]thiazolo[5,4-e][1,4]diazepin-10-one]
- IC50: 90.4 nM

Structure (SMILES): CCN1c2nc(Nc3ccc(N4CCC(N5CCN(C)CC5)CC4)cc3OC)ncc2NC(=O)c2nc(C)sc21 [Compound 9, 4-ethyl-6-((2-methoxy-4-(4-(4-methylpiperazin-1-yl)piperidin-1-yl)phenyl)amino)-2-methyl-4,9-dihydro-10H-pyrimido[5,4-b]thiazolo[5,4-e][1,4]diazepin-10-one]
- IC50: 45.1 nM

Structure (SMILES): Cc1nc2c(s1)N(C)c1nc(Nc3cnn(C)c3)ncc1N(C)C2=O [Compound 26, 2,4,9-trimethyl-6-((1-methyl-1H-pyrazol-4-yl)amino)-4,9-dihydro-10H-pyrimido[5,4-b]thiazolo[5,4-e][1,4]diazepin-10-one]
- IC50: 666 nM

Structure (SMILES): COc1cc(N2CCN(C)CC2)ccc1Nc1ncc2c(n1)N(C)c1sc(C)nc1C(=O)N2 [Compound 7, 6-((2-methoxy-4-(4-methylpiperazin-1-yl)phenyl)amino)-2,4-dimethyl-4,9-dihydro-10H-pyrimido[5,4-b]thiazolo[5,4-e][1,4]diazepin-10-one]
- IC50: 48.7 nM

Structure (SMILES): COc1cc(N2CCN(C(C)=O)CC2)ccc1Nc1ncc2c(n1)N(C)c1sc(C)nc1C(=O)N2C [Compound 199, 6-((4-(4-acetylpiperazin-1-yl)-2-methoxyphenyl)amino)-2,4,9-trimethyl-4,9-dihydro-10H-pyrimido[5,4-b]thiazolo[5,4-e][1,4]diazepin-10-one]
- IC50: 45.7 nM

Structure (SMILES): Cc1nc2c(s1)N(C)c1nc(Nc3ccc(N4CCC(O)CC4)cc3)ncc1NC2=O [Compound 2, 6-((4-(4-hydroxypiperidin-1-yl)phenyl)amino)-2,4-dimethyl-4,9-dihydro-10H-pyrimido[5,4-b]thiazolo[5,4-e][1,4]diazepin-10-one]
- IC50: 580 nM

Structure (SMILES): CCCN1c2nc(Nc3ccc(N4CCC(N5CCN(C)CC5)CC4)cc3OC)ncc2N(C)C(=O)c2nc(C)sc21 [Compound 205, 6-((2-methoxy-4-(4-(4-methylpiperazin-1-yl)piperidin-1-yl)phenyl)amino)-2,9-dimethyl-4-propyl-4,9-dihydro-10H-pyrimido[5,4-b]thiazolo[5,4-e][1,4]diazepin-10-one]
- IC50: 46.6 nM

Structure (SMILES): COc1cc(N2CCC(N3CCN(C)CC3)CC2)ccc1Nc1ncc2c(n1)N(C)c1sc(-c3ccccc3)nc1C(=O)N2C [Compound 186, 6-((2-methoxy-4-(4-(4-methylpiperazin-1-yl)piperidin-1-yl)phenyl)amino)-4,9-dimethyl-2-phenyl-4,9-dihydro-10H-pyrimido[5,4-b]thiazolo[5,4-e][1,4]diazepin-10-one]
- IC50: > 10000 nM
